Where a SMILES comes first, the peptide text is derived from it. The star is where a group is joined. X1 = CN(C)c1ccc2c(-c3ccc(C(=O)*)cc3C(=O)[O-])c3ccc(=[N+](C)C)cc-3oc2c1
Columns and labels:
[1] = system: A549; assay: Time-lapse live cell imaging, A549; type: cell-based; conditions: A549, unbound TMR-GBP removed, imaged at 15 minutes interval for 16 hours, FIG. 4
Description: (§1) Time-Lapse Live Cell Imaging
(§2) In order to monitor cell morphology and the stability of TMR-GBP, cells were incubated in 35 mm dish or 4 well dish at 37° C. overnight. Replaced the culture medium with CO2-independent medium with supplement of 10% fetal bovine serum (FBS) and 1% penicillin-streptomycin, cells were treated with reagent (TMR, GBP, TMR-GBP) for the time according to the experiment and subjected to time-lapse live cell imaging. Cells were maintained on the microscope stage incubator at 37° C. Multiple-positional time-lapse imaging was performed using an automated Leica DMI6000 inverted microscope equipped with an HCX PL FL 20λ/NA0.4 objective and Andor Luca R EMCCD camera. Images of cells were taken at different interval time and analyzed by MetaMorph software.

[2] = system: OSC20; assay: Time-lapse live cell imaging, OSC20; type: cell-based, human; conditions: OSC20, unbound TMR-GBP removed, imaged at 15 minutes interval for 16 hours, FIG. 4
Description: as §1, §2

[3] = system: Bax; assay: Western blotting of pro-apoptotic protein Bax; type: cell-based, human; conditions: Ca922, 25 μM, indicated time points, FIG. 6C
Description: Protein expression of pro-apoptotic protein Bax were examined in Ca922 cells treated with 25 μM TMR-GBP for indicated time points. The relative protein level was presented below the blot as ratios which was normalized to Bax value of control cells (0 hour).
(§3) Western Blotting Analysis
(§4) Cells were harvested by trypsion or scratch and lysed in RIPA buffer (50 mM Tris-HCl, pH 7.4, 150 mM NaCl, 0.1% SDS, 0.5% Sodium deoxycholate, 1% NP-40) supplemented with 1× protease inhibitor cocktail. Sample was incubated on ice for 30 minutes and scraped every 10 minutes. Centrifuge at 13,000 rpm at 4° C. for 15 minutes, then collect supernatant for analysis. Protein concentration was determined by Bradford assay. First, 5× Bradford assay dye reagent was diluted into […], and mixture with RIPA (as standard) or samples. Concentration was obtained by spectrophotometer measurement. Equal volume of 2× laemmli buffer containing β-ME was added into protein lysate for goal concentration. Protein samples were boiled at 100° C. for 15 minutes and resolved by 10% SDS-PAGE gel or 4%-15% gradient gel. Then, transfer to PVDF membrane by 100V or 110V voltage for 1 hour. […] Washing the membrane three times with 1×PBST for every 5 minutes, protein band was detected by modified ECL (ddH2O, […] Tris pH8.0, 200 μM p-coumaric acid, 1.25 mM luminal, 0.001% H2O2) with ImageQuant LAS 4000 digital imaging system.

[4] = system: H520; assay: WST-8 cell viability assay, H520; type: cell-based; conditions: H520 (lung cancer), different concentrations, 48 hours, FIG. 5
Description: (§5) Human oral squamous cell carcinoma (OSCC) cell lines, Ca922, OSC20, OECM-1, OC3, CGHNC9, HSC3, plus A549, MDA-MB-231, MCF7, Huh7, HeLa-Kyoto, Detroit 562, H520, H2170, and 293T cells were used in this study. Ca922, CGHNC9, MDA-MB-231, MCF7, Huh7, HeLa-Kyoto, Detroit 562, and 293T cells were all cultured in high-glucose Dulbecco's Modified Eagle Medium (DMEM). OSC20 and HSC3 cells were cultured in Dulbecco's Modified of Eagle's Medium/Ham's F-12 50/50 Mix (1:1). OECM-1, A549, H520, and H2170 cells were grown in RPMI-1640 medium. All culture media were supplemented with 10% fetal bovine serum (FBS) and 1% penicillin-streptomycin. OC3 cells were cultured in 1:1 DMEM/KSFM (keratinocyte serum-free medium) with supplied supplement of Bovine pituitary extract (BPE) and epidermal growth factor (EGF) followed by instruction. All the cells in this study were maintained at 37° C. in humidified atmosphere containing 5% CO2.
(§6) WST-8 [2-(2-methoxy-4-nitrophenyl)-3-(4-nitrophenyl)-5-(2,4-disulfophenyl)-2H-tetrazolium, monosodium salt] cell viability assay
(§7) Cells were seeded into 96 well plate and incubated at 37° C. overnight. Endpoint measures of TMR-GBP or drugs were performed by water soluble tetrazolium salt (WST-8)-based colorimetric assay in triplicate which measures the metabolic conversion of WST-8 into formazan by mitochondrial dehydrogenases present in viable cells. The amount of formazan produced is proportional to the number of live cells and is expressed as cellular viability. When time was up, media were removed and supplemented with WST-8 cell viability reagent-contained cell culture medium (1:10) and incubated at 37° C. for 2 hours. Besides, three wells with WST-8-dissolved medium only (without cells) were reserved as a background control. Cell viability was measured at the absorbance of 450/655 nm wavelength by ELISA reader.

[5] = system: Caspase-9; assay: Western blotting of Caspase-9; type: cell-based, human; conditions: Ca922, 25 μM, FIG. 11B
Description: (§8) Protein lysate of Ca922 cells treated with TMR-GBP 25 μM were blotted with antibodies against Caspase-3, Caspase-7, Caspase-9 and Poly (ADP-ribose) polymerase (PARP). Representative blots are shown.
as §3, §4

[6] = system: OECM-1; assay: Time-lapse live cell imaging, OECM-1; type: cell-based, human; conditions: OECM-1, unbound TMR-GBP removed, imaged at 15 minutes interval for 16 hours, FIG. 4
Description: as §1, §2

[7] = system: Caspase-3; assay: Western blotting of Caspase-3; type: cell-based, human; conditions: Ca922, 25 μM, treatment time up to 48 hours, FIG. 11B, 11C
Description: as §8
Ca922 cells were treated with TMR-GBP and collected at indicated time points. Then blotted for Caspase-3 to observe whether TMR-GBP triggered […] apoptosis pathway.
as §3
as §4, with “concentration.” for “concentration. Protein samples were boiled at 100° C. for 15 minutes and resolved by 10% SDS-PAGE gel or 4%-15% gradient gel. Then, transfer to PVDF membrane by 100V or 110V voltage for 1 hour.”

[8] = system: Ca922 cells; assay: WST-8 cell viability assay, Ca922; type: cell-based, human; conditions: for cytotoxicity (cell viability): 48 hours
Description: as §5, §6, §7

CN(C)c1ccc2c(-c3ccc(C(=O)N[C@@H](CC(N)=O)C(=O)N[C@@H](Cc4ccc(O)cc4)C(=O)N[C@@H](CCCNC(=N)N)C(=O)N[C@@H](Cc4c[nH]c5ccccc45)C(=O)N[C@@H](CCCNC(=N)N)C(=O)N[C@@H](CS)C(=O)N[C@@H](CCCCN)C(=O)N[C@@H](CC(N)=O)C(=O)N[C@@H](CCC(N)=O)C(=O)N[C@@H](CC(N)=O)C(=O)O)cc3C(=O)[O-])c3ccc(=[N+](C)C)cc-3oc2c1 [TMR-GBP] (X1-NYRWRCKNQN-OH; N-terminus and C-terminus assumed)
cell death by time-lapse microscopy [1]: still alive after long-term TMR-GBP treatment | cell death by time-lapse microscopy [2]: most cells die in 8 hours | protein expression of Bax [3]: increased | cytotoxicity (cell viability) [4]: could induce cytotoxicity | activation of caspase-9 [5]: did not activate | cell death by time-lapse microscopy [6]: most cells die in 8 hours | activation of caspase-3 [7]: did not activate | cytotoxicity (cell viability) ([8]; Ca922 (oral cancer), different concentrations, FIG. 5): could induce cytotoxicity | TMR-GBP induced cytotoxicity after NAC pretreatment ([8]; Ca922, NAC pretreated 2 hours, then TMR-GBP 0, 12.5, 25 or 50 μM for 48 hours, FIG. 8B): partially suppressed by NAC | TMR-GBP induced cytotoxicity, dependence on calcium ([8]; Ca922, calcium chelators BAPTA-AM, EGTA pretreated 2 hours, then TMR-GBP 48 hours, FIG. 8B): independent of calcium release | cytotoxicity (cell viability) ([8]; Ca922 cells, 50 μM, FIG. 1): could induce cytotoxicity
